Test results reported in the supplement of paper PMC13380429.

Key:
Settings in all cases: 72 h
Caco-2 [1] = assay: cell viability relative to DMSO; higher = less toxic
Calu-3 [2] = assay: as above
HepG2 [3] = assay: as above
U2OS [4] = assay: as above
Vero E6 [5] = assay: as above
Caco-2 [6] = assay: relative viability EC50 (midpoint between 100% and the lowest measured viability); higher = less toxic
Calu-3 [7] = assay: as above
HepG2 [8] = assay: as above
U2OS [9] = assay: as above
Vero E6 [10] = assay: as above
Caco-2 [11] = assay: drug sensitivity score (DSS) for viability; higher = more toxic; extreme values may be limits of the assay
Calu-3 [12] = assay: as above
HepG2 [13] = assay: as above
U2OS [14] = assay: as above
Vero E6 [15] = assay: as above

Row | SMILES | cell viability (Caco-2 [1]; 1 nM) [%] | cell viability (Caco-2 [1]; 10 nM) [%] | cell viability (Caco-2 [1]; 100 nM) [%] | cell viability (Caco-2 [1]; 1000 nM) [%] | cell viability (Caco-2 [1]; 10000 nM) [%] | cell viability (Calu-3 [2]; 1 nM) [%] | cell viability (Calu-3 [2]; 10 nM) [%] | cell viability (Calu-3 [2]; 100 nM) [%] | cell viability (Calu-3 [2]; 1000 nM) [%] | cell viability (Calu-3 [2]; 10000 nM) [%] | cell viability (HepG2 [3]; 1 nM) [%] | cell viability (HepG2 [3]; 10 nM) [%] | cell viability (HepG2 [3]; 100 nM) [%] | cell viability (HepG2 [3]; 1000 nM) [%] | cell viability (HepG2 [3]; 10000 nM) [%] | cell viability (U2OS [4]; 1 nM) [%] | cell viability (U2OS [4]; 10 nM) [%] | cell viability (U2OS [4]; 100 nM) [%] | cell viability (U2OS [4]; 1000 nM) [%] | cell viability (U2OS [4]; 10000 nM) [%] | cell viability (Vero E6 [5]; 1 nM) [%] | cell viability (Vero E6 [5]; 10 nM) [%] | cell viability (Vero E6 [5]; 100 nM) [%] | cell viability (Vero E6 [5]; 1000 nM) [%] | cell viability (Vero E6 [5]; 10000 nM) [%] | relative viability EC50 (Caco-2 [6]) [µM] | relative viability EC50 (Calu-3 [7]) [µM] | relative viability EC50 (HepG2 [8]) [µM] | relative viability EC50 (U2OS [9]) [µM] | relative viability EC50 (Vero E6 [10]) [µM] | drug sensitivity score (Caco-2 [11]) | drug sensitivity score (Calu-3 [12]) | drug sensitivity score (HepG2 [13]) | drug sensitivity score (U2OS [14]) | drug sensitivity score (Vero E6 [15])
1 | CC1(C)O[C@@H]2[C@@H](CO[C@@]3(COS(N)(=O)=O)OC(C)(C)O[C@@H]23)O1 [topiramate] | 93.2 | 83.1 | 92.2 | 112 | 98.7 | 110 | 96.6 | 94.8 | 95.2 | 103 | 108 | 96.9 | 91.8 | 95.9 | 94.9 | 98.7 | 94.5 | 98.1 | 105 | 108 | 89.5 | 98.3 | 95.6 | 97.7 | 107 | > 10 | > 10 | > 10 | > 10 | > 10 | 0 | 0 | 0 | 0 | 0
2 | OCCOc1ccc(/C(=C(/CCCl)c2ccccc2)c2ccccc2)cc1 [ospemifene] | 103 | 108 | 104 | 91.3 | 78 | 96.7 | 103 | 106 | 96.6 | 101 | 99.5 | 97 | 103 | 107 | 106 | 98.4 | 104 | 98.1 | 101 | 93.1 | 97.9 | 102 | 101 | 99.9 | 94.2 | > 10 | > 10 | > 10 | > 10 | > 10 | 1.7 | 0 | 0 | 0 | 0
3 | CC(C)=CC[C@@H](O)C1=CC(=O)c2c(O)ccc(O)c2C1=O [Shikonin] | 99.6 | 103 | 94.3 | 30.6 | 1.1 | 98.7 | 112 | 96.5 | 36.5 | 2 | 102 | 97.5 | 97.4 | 2.2 | -0.3 | 96.9 | 100 | 89.5 | 4.8 | 0.2 | 95.8 | 96.3 | 91.2 | 6.1 | -0.3 | 0.587 | 0.711 | 0.313 | 0.26 | 0.29 | 14.1 | 13 | 18 | 18.9 | 18.3
4 | O=C1C[C@@H](c2ccc(O)cc2)Oc2cc(O)cc(O)c21 [naringenin] | 114 | 103 | 90.3 | 97.2 | 88.5 | 93.2 | 97.9 | 89.9 | 99.7 | 93.7 | 104 | 107 | 99.3 | 95.1 | 99.9 | 98.9 | 104 | 95.6 | 102 | 103 | 101 | 99.7 | 101 | 94 | 93.3 | > 10 | > 10 | > 10 | > 10 | > 10 | 0 | 0 | 0 | 0 | 0
5 | NS(=O)(=O)c1cc2c(cc1Cl)N=CNS2(=O)=O [chlorothiazide] | 92.4 | 99.8 | 95.3 | 91 | 86.6 | 85.8 | 88.9 | 103 | 102 | 96.6 | 102 | 102 | 95.9 | 97.8 | 99 | 98.1 | 102 | 96.6 | 106 | 99 | 97.8 | 103 | 96.3 | 96.8 | 96.7 | > 10 | > 10 | > 10 | > 10 | > 10 | 0.1 | 0 | 0 | 0 | 0
6 | Cc1ccc(-c2ncc[nH]2)cc1NC(=O)c1ccc(OCc2ccccn2)cc1 | 101 | 101 | 105 | 96.7 | 85.2 | 91 | 97.8 | 96.6 | 89.1 | 101 | 103 | 103 | 97.7 | 96 | 94.7 | 96.5 | 98 | 100 | 97.1 | 99.2 | 100 | 104 | 99.2 | 99.2 | 90 | > 10 | > 10 | > 10 | > 10 | > 10 | 0.5 | 0 | 0 | 0 | 0
7 | CC(C)C(=O)Oc1ccc(CO)cc1[C@H](CCN(C(C)C)C(C)C)c1ccccc1 [fesoterodine] | 91.6 | 99.1 | 103 | 98.8 | 96.5 | 102 | 97.3 | 90.2 | 100 | 104 | 101 | 104 | 83.7 | 90.9 | 90.7 | 105 | 95.8 | 98.2 | 99.8 | 100 | 100 | 99.9 | 99.2 | 104 | 92.6 | > 10 | > 10 | > 10 | > 10 | > 10 | 0 | 0 | 3 | 0 | 0
8 | c1ccc2oc(C3=NCCN3)cc2c1 [2-BFI] | 102 | 96.2 | 97.7 | 93.6 | 112 | 95.9 | 99.7 | 102 | 100 | 95.7 | 97.9 | 98.3 | 87.5 | 98 | 100 | 100 | 96.7 | 99.7 | 99.9 | 97.7 | 93.8 | 100 | 90.5 | 94.4 | 107 | > 10 | > 10 | > 10 | > 10 | > 10 | 0 | 0 | 0 | 0 | 0
9 | COc1ccccc1N1CCN(CCn2c(=O)[nH]c3c([nH]c4ccccc43)c2=O)CC1 [3-MPPI] | 96 | 93.8 | 99.4 | 96.1 | 103 | 99.6 | 105 | 104 | 98.8 | 106 | 102 | 111 | 106 | 102 | 92.2 | 103 | 98 | 102 | 99.4 | 101 | 104 | 104 | 102 | 99.4 | 103 | > 10 | > 10 | > 10 | > 10 | > 10 | 0 | 0 | 0 | 0 | 0
10 | C=C[C@@](C)(/C=C/c1ccc(O)cc1)CCC=C(C)C [bakuchiol] | 105 | 87.4 | 109 | 96.8 | 97.6 | 94.8 | 94.9 | 95.7 | 96.1 | 98.2 | 107 | 115 | 87.9 | 93 | 81.5 | 96.1 | 101 | 98 | 92.8 | 97.6 | 103 | 110 | 98.7 | 97.6 | 98.5 | > 10 | > 10 | > 10 | > 10 | > 10 | 0 | 0 | 0.9 | 0 | 0
11 | CN(C)CCC=C1c2ccccc2CCc2ccccc21 [amitriptyline] | 110 | 77.9 | 104 | 96.5 | 90.8 | 99.6 | 109 | 110 | 104 | 90.3 | 107 | 102 | 99.1 | 93 | 83.5 | 102 | 98.5 | 100 | 101 | 92.3 | 102 | 94 | 86.5 | 113 | 86.3 | > 10 | > 10 | > 10 | > 10 | > 10 | 0 | 0 | 0.8 | 0 | 0
12 | CCCCOc1cc(C(=O)NCCN(CC)CC)c2ccccc2n1 [cinchocaine] | 99.9 | 95 | 103 | 94.2 | 88.1 | 96.6 | 94.4 | 97.4 | 94.3 | 92.3 | 97.2 | 107 | 102 | 94.7 | 89.2 | 100 | 98.2 | 101 | 98.1 | 101 | 103 | 104 | 97.8 | 103 | 94.1 | > 10 | > 10 | > 10 | > 10 | > 10 | 0.3 | 0 | 0.1 | 0 | 0
13 | Oc1ccc2c3c1O[C@H]1c4[nH]c5c(c4C[C@@]4(O)[C@@H](C2)N(CC2CC2)CC[C@]314)C[C@@]1(O)[C@H]2Cc3ccc(O)c4c3[C@@]1(CCN2CC1CC1)[C@H]5O4 [nor-binaltorphimine] | 97.9 | 90.4 | 100 | 102 | 106 | 105 | 99.9 | 100 | 106 | 102 | 93.7 | 108 | 111 | 105 | 99.2 | 103 | 109 | 106 | 98.6 | 99 | 92.5 | 98.3 | 91.2 | 95.7 | 108 | > 10 | > 10 | > 10 | > 10 | > 10 | 0 | 0 | 0 | 0 | 0
14 | Cc1ccc(Nc2ncc3c(n2)N(C)C(=O)N(c2cc(NC(=O)c4cccc(C(F)(F)F)c4)ccc2C)C3)cn1 [GNF-7] | 93.8 | 92.1 | 89.3 | 19.3 | 18.7 | 112 | 103 | 87.5 | 20.8 | 23.7 | 92.5 | 101 | 97.7 | 16.8 | 0.3 | 105 | 97.5 | 78.8 | 13.9 | 32.9 | 95.2 | 103 | 91 | 12 | 11.3 | 0.21 | 0.195 | 0.501 | 0.156 | 0.235 | 16.6 | 16.6 | 15.4 | 19 | 17.5
